US9499538B2, “Estrogen receptor modulators and uses thereof” (Seragon Pharmaceuticals, Inc., priority 2012, dated 2016)

Tests used:
MCF-7 cells = assay: Breast Cancer Cell Viability Assays (MCF-7, CellTiter-Glo); assay type: cell-based; settings: 5 days' compound exposure; for IC50: Homo sapiens, MCF7, 120 h
Method in brief: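 Percent viability, background-subtracted against untreated wells, was taken from CellTiter-Glo luminescence after 5 days' exposure of MCF-7 cells. Compounds were tested at eleven semilog concentrations, final 0.3–0.000003 μM, in RPMI containing 10% FBS.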

ER-α in MCF-7 cells = molecular target: T1, ER-α in MCF-7 cells (Homo sapiens, UniProt P03372); assay: Breast Cancer Cell ER-α In Cell Western Assay (SP1); assay type: cell-based; settings: 4 or 24 hr post compound addition; for Emax: MCF7, SP1 antibody, read-out: ER-α In Cell Western Assay (SP1) Max Response; for DC50: SP1 antibody, read-out: ER-α In Cell Western Assay (SP1) IC50
T1 construct: endogenous in cells; host or cells: MCF-7
T1 sequence (P03372 1-595): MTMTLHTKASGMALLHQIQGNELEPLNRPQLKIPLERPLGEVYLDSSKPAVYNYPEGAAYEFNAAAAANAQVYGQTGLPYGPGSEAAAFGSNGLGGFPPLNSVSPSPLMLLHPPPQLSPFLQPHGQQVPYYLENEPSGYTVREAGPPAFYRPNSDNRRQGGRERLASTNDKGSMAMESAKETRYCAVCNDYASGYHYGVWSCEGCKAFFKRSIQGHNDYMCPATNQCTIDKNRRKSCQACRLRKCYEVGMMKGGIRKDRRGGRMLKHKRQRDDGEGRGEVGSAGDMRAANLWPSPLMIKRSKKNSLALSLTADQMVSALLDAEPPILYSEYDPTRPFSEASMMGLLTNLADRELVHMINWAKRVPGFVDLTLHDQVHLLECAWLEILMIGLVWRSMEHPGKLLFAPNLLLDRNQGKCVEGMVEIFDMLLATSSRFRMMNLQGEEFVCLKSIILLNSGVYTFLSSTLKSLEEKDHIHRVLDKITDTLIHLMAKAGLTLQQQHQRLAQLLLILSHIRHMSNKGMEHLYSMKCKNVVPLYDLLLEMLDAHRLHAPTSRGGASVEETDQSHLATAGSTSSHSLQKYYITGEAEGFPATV
Method in brief: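 ER-α levels quantified by in-cell western: SP1 signal normalised to DRAQ5 DNA stain, relative to untreated cells (% ER). Compounds at 0.3–0.000003 μM final, 11-point semilog series, 4 or 24 h exposure of MCF-7 cells grown in charcoal-stripped serum.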

IC50 (MCF-7 cells) [nM]	Emax (ER-α in MCF-7 cells) [%]	DC50 (ER-α in MCF-7 cells) [nM]	SMILES	MCF7 Viability Assay Max Response (MCF-7 cells)
≤ 100	≥ 40	≤ 100	O=c1[nH]c(/C=C/c2ccc(/C(=C(\c3ncc(C(F)(F)F)cc3Cl)C3CCC3)c3ccc4scnc4c3)cc2)no1 [Example 277, 3-((E)-4-((E)-1-(Benzo[d]thiazol-5-yl)-2-(3-chloro-5-(trifluoromethyl)pyridin-2-yl)-2-cyclobutylvinyl)styryl)-1,2,4-oxadiazol-5(4H)-one]	++ (++ = a single % value ≧ 40%)
≤ 100	≥ 40	≤ 100	COc1ccc(/C(=C(\c2ccc(/C=C/c3noc(=O)[nH]3)cc2)c2ccc3scnc3c2)C2CCC2)c(Cl)c1 [Example 278, 3-((E)-4-((E)-1-(Benzo[d]thiazol-5-yl)-2-(2-chloro-4-methoxyphenyl)-2-cyclobutylvinyl)styryl)-1,2,4-oxadiazol-5(4H)-one]	++ (++ = a single % value ≧ 40%)
≤ 100	≥ 40	≤ 100	O=c1[nH]c(/C=C/c2ccc(/C(=C(\c3ncc(C(F)(F)F)cc3Cl)C3CCC3)c3ccc4[nH]nc(F)c4c3)cc2)no1 [Example 279, 3-((E)-4-((E)-2-(3-Chloro-5-(trifluoromethyl)pyridin-2-yl)-2-cyclobutyl-1-(3-fluoro-1H-indazol-5-yl)vinyl)styryl)-1,2,4-oxadiazol-5(4H)-one]	++ (++ = a single % value ≧ 40%)
≤ 100	≥ 40	≤ 100	N#Cc1cc(C(F)(F)F)ccc1/C(=C(\c1ccc(/C=C/c2noc(=O)[nH]2)cc1)c1ccc2[nH]nc(F)c2c1)C1CCC1 [Example 280, 2-((E)-1-Cyclobutyl-2-(3-fluoro-1H-indazol-5-yl)-2-(4-((E)-2-(5-oxo-4,5-dihydro-1,2,4-oxadiazol-3-yl)vinyl)phenyl)vinyl)-5-(trifluoromethyl)benzonitrile]	++ (++ = a single % value ≧ 40%)
≤ 100	≥ 40	≤ 100	CS(=O)(=O)c1cc(Cl)ccc1/C(=C(\c1ccc(/C=C/C(=O)O)cc1)c1ccc2scnc2c1)C1CCC1 [Example 281, (E)-3-(4-((E)-1-(Benzo[d]thiazol-5-yl)-2-(4-chloro-2-(methylsulfonyl)phenyl)-2-cyclobutylvinyl)phenyl)acrylic acid]	++ (++ = a single % value ≧ 40%)
≤ 100	≥ 40	≤ 100	CS(=O)(=O)c1cc(Cl)ccc1/C(=C(\c1ccc(/C=C/C(=O)O)cc1)c1ccc2[nH]nc(F)c2c1)C1CCC1 [Example 282, (E)-3-(4-((E)-2-(4-Chloro-2-(methylsulfonyl)phenyl)-2-cyclobutyl-1-(3-fluoro-1H-indazol-5-yl)vinyl)phenyl)acrylic acid]	++ (++ = a single % value ≧ 40%)
≤ 100	≥ 40	≤ 100	O=c1[nH]nc(/C=C/c2ccc(/C(=C(\c3ccccc3)C3CCC3)c3ccc4[nH]nc(F)c4c3)cc2)[nH]1 [Example 283, 3-((E)-4-((E)-2-Cyclobutyl-1-(3-fluoro-1H-indazol-5-yl)-2-phenylvinyl)styryl)-1H-1,2,4-triazol-5(4H)-one]	++ (++ = a single % value ≧ 40%)
≤ 100	≥ 40	≤ 100	Fc1n[nH]c2ccc(/C(=C(/c3ccccc3)C3CCC3)c3ccc(/C=C/c4nnc[nH]4)cc3)cc12 [Example 284, 5-((E)-1-(4-((E)-2-(4H-1,2,4-Triazol-3-yl)vinyl)phenyl)-2-cyclobutyl-2-phenylvinyl)-3-fluoro-1H-indazole]	++ (++ = a single % value ≧ 40%)
≤ 100	≥ 40	≤ 100	Fc1n[nH]c2ccc(/C(=C(/c3ccccc3)C3CCC3)c3ccc(/C=C/c4ncc[nH]4)cc3)cc12 [Example 285, 5-((E)-1-(4-((E)-2-(1H-Imidazol-2-yl)vinyl)phenyl)-2-cyclobutyl-2-phenylvinyl)-3-fluoro-1H-indazole]	++ (++ = a single % value ≧ 40%)
≤ 100	≥ 40	≤ 100	Fc1n[nH]c2ccc(/C(=C(/c3ccccc3)C3CCC3)c3ccc(/C=C/c4cnn[nH]4)cc3)cc12 [Example 286, 5-((E)-1-(4-((E)-2-(1H-1,2,3-Triazol-5-yl)vinyl)phenyl)-2-cyclobutyl-2-phenylvinyl)-3-fluoro-1H-indazole]	++ (++ = a single % value ≧ 40%)
